In PMC9434261, “Plant peptidoglycan precursor biosynthesis: Conservation between moss chloroplasts and Gram-negative bacteria” (Plant Physiology, 2022):
Square brackets hold non-standard residues; d marks the D form. Peptide text beside a SMILES is read from it.

Experiments:
[1] = target: T1, PaMurF (Pseudomonas aeruginosa, UniProt Q9EY48); assay: coupled ADP-release assay, tripeptide made in situ by MurE; type: biochemical; conditions: with UDP-MurNAc-D,L-DAP tripeptide (made in situ by MurE) and ATP
T1 construct: gene murF; recombinant, overexpressed and purified as in Majce et al. 2013
T1 sequence (Q9EY48 1-458): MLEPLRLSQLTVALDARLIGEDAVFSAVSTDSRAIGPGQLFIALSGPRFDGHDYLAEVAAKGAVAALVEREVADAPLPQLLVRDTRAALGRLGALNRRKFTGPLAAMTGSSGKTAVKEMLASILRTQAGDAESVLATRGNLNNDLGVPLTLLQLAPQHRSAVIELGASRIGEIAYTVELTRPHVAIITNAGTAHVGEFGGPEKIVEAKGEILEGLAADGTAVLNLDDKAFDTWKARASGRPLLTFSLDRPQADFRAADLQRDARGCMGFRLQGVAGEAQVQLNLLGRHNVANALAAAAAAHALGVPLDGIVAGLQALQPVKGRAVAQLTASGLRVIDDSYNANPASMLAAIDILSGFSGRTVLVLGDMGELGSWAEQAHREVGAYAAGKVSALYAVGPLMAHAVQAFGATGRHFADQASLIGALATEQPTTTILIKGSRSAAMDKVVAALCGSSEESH

[2] = target: T2, Streptococcus pneumoniae Pn16 MurE (Streptococcus pneumoniae, UniProt Q8CWQ5); assay: coupled pyruvate kinase/lactate dehydrogenase ADP-release assay, A340; type: biochemical; conditions: 150 µM L-Lys, 375 µM UDP-MurNAc-dipeptide, ATP; 37 °C
T2 construct: recombinant, overexpressed and purified as in Blewett et al. 2004
T2 sequence (Q8CWQ5 1-481): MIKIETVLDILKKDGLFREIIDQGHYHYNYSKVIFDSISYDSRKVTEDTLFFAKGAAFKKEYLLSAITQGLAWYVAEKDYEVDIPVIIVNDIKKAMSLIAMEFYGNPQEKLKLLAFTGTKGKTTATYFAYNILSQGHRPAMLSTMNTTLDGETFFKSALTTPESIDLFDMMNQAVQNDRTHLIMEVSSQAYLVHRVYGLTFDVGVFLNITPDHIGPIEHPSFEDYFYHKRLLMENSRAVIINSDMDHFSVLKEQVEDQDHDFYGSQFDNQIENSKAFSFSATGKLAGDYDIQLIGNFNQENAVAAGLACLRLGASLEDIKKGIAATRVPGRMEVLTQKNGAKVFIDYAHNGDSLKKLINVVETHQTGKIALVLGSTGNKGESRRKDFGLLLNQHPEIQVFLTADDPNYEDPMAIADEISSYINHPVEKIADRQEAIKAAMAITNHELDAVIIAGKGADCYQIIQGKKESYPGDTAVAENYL

Row | SMILES | coupled ADP-release assay, tripeptide made in situ by MurE [1] | coupled pyruvate kinase/lactate dehydrogenase ADP-release assay, A340 [2]
1 | C[C@@H](N)C(=O)N[C@H](C)C(=O)O [D-Ala–D-Ala] (H-[dA]-[dA]-OH) | MurF ligase with D-Ala–D-Ala as the second substrate | –
2 | CC(=O)N[C@H]1[C@@H](OP(=O)(O)OP(=O)(O)OC[C@H]2O[C@@H](n3ccc(=O)[nH]c3=O)[C@H](O)[C@@H]2O)O[C@H](CO)[C@@H](O)[C@@H]1O[C@H](C)C(=O)N[C@@H](C)C(=O)N[C@H](CCC(=O)O)C(=O)O [UDP-MurNAc-Ala-Glu, Uridine diphospho N-acetylmuramyl-L-alanyl-D-glutamate] | – | lysylation of UDP-MurNAc-Ala-Glu was also assayed with the L-Lys-specific Streptococcus pneumoniae Pn16 MurE
